Earlier results as cited in patent US20150290272A1, “PHARMACEUTICAL COMPOSITION FOR PREVENTING/TREATING BRAIN INJURY AND ENHANCING RECOVERY OF SEQUELAE AND MANUFACTURE THEREOF” (PhytoHealth Corporation, priority 2014, published 2015).

System: acute ischemic stroke

For “rtPA: thrombolysis agent recombinant tissue plasminogen activator (rt-PA) (Actilyse) for acute ischemic stroke”, the “increase in the number of people living without disability” value (at three to six months, 2014 review) is listed as 5%, the “overall benefit with respect to living without disability” value (given within three hours of symptom onset) is listed as 10% and the “increased risk of death” value (in the short term, 2014 review) is listed as 2%. For the same substance, the “people with large strokes who developed substantial brain hemorrhage as a complication” value (in vivo) was 6.4%.
